# Test results reported in patent US20100197650A1, “COMPOSITIONS AND METHODS OF TREATMENT COMPRISING CEFTAROLINE” (FOREST LABORATORIES HOLDINGS LTD., priority 2008, published 2010).
# Read-outs that look alike come from different tables or passages of the source.
# Experiments:
# [1] = test system: Acinetobacter baumannii; assay: MIC, broth microdilution (Example 1); type: cell-based
# Method: (§1) Stock solutions of all antibacterial agents were prepared at 80-fold (80×) the final target concentration in the appropriate solvent and the solution was allowed to stand for 60 minutes. All antibacterial agents were in solution under these conditions. The final drug concentrations in the FIC assay plates were set to bracket the MIC value of each agent for each test organism, unless the strain was totally resistant to the test agent.
# (§2) The test organisms were originally received from clinical sources, or from the American Type Culture Collection. Upon receipt, the isolates were streaked onto the appropriate growth medium: Chocolate Agar for H. influenzae, Tryptic Soy Agar II (Becton Dickinson, Sparks, Md.) supplemented with 5% defibrinated sheep blood for streptococci, and unsupplemented Tryptic Soy Agar II for all other organisms. Colonies were harvested from these plates and a cell suspension was prepared in Tryptic Soy Broth (Becton Dickinson) containing cryoprotectant. Aliquots were then frozen at −80° C. On the day prior to assay, the frozen seeds of the organisms to be tested in that session were thawed and streaked for isolation onto the appropriate agar medium plates and incubated overnight at 35° C.
# (§3) The test medium for H. influenzae was Haemophilus Test Medium. Streptococci were tested in Mueller Hinton II Broth (Becton Dickinson; Lot 6235472) supplemented with 2% lysed horse blood (Cleveland Scientific, Bath, Ohio; Lot H88621). All other organisms were tested in Mueller Hinton II Broth (Becton Dickinson, Lot 6235472). The broth was prepared at 1.05× normal weight/volume to offset the 5% volume of the drugs in the final test plates.
# (§4) In order to select the proper test concentrations for each drug combination, minimal inhibitory concentration (MIC) values were first determined using the broth microdilution method previously described (Clinical and Laboratory Standards Institute. Methods for Dilution Antimicrobial Susceptibility Tests for Bacteria That Grow Aerobically; Approved Standard—Seventh Edition. Clinical and Laboratory Standards Institute document M7-A7 [ISBN 1-56238-587-9]. Clinical and Laboratory Standards Institute, 940 West Valley Road, Suite 1400, Wayne, Pa. 19087-1898 USA, 2006).
# (§5) The wells of standard 96-well microdilution plates (Falcon 3918) were filled with 150 μL of 100% DMSO using the Multidrop 384. These plates were used to prepare the drug “mother plates” which provided the serial drug dilutions for the drug combination plates. The Biomek 2000 was used to transfer 150 μl of each stock solution (80×) from the wells in Column 1 of a deep well plate to the corresponding wells in Column 1 of the mother plate and to make seven 2-fold serial dilutions. Two mother plates, one for each drug, were combined to form a “checkerboard” pattern by transfer of equal volumes (using a multi-channel pipette) to the drug combination plate. Row H and Column 8 each contained serial dilutions of one of the agents alone for determination of the MIC.
# (§6) Plates were stacked 3 high, covered with a lid on the top plate, placed in plastic bags, and incubated at 35° C. for approximately 20 hours. Following incubation, the microplates were removed from the incubator and viewed from the bottom using a ScienceWare plate viewer. Prepared reading sheets were marked for the MIC of drug 1 (row H), the MIC of drug 2 (column 8) and the wells of the growth-no growth interface.
# [2] = test system: Klebsiella pneumoniae; assay: MIC, broth microdilution (Example 1); type: cell-based; conditions: Klebsiella pneumoniae
# Method: as §1, §2, §3, §4, §5, §6
# [3] = test system: Staphylococcus aureus; assay: MIC, broth microdilution (Example 1); type: cell-based
# Method: as §1, §2, §3, §4, §5, §6
# [4] = test system: Streptococcus pneumoniae; assay: MIC, broth microdilution (Example 1); type: cell-based
# Method: as §1, §2, §3, §4, §5, §6
# [5] = test system: ESBL-producing E. coli; assay: Susceptibility testing MIC/MBC, broth microdilution (Example 2); type: cell-based, Escherichia coli; conditions: for MBC range / MIC range: E. coli (10) clinical isolates; for MBC / MIC: Escherichia coli
# [6] = test system: ESBL-producing Klebsiella pneumoniae; assay: as above; type: cell-based; conditions: for MBC range / MIC range: K. pneumonia (10) clinical isolates; for MBC / MIC: Klebsiella pneumoniae
# [7] = test system: AmpC-derepressed Enterobacter cloacae; assay: microbe, parasite or virus in culture; type: cell-based; conditions: for MBC range / MIC range: E. cloacae (10) clinical isolates; for MBC / MIC: Enterobacter cloacae
# [8] = test system: P. aeruginosa; assay: Susceptibility testing MIC/MBC, broth microdilution (Example 2); type: cell-based, Pseudomonas aeruginosa; conditions: for MBC range / MIC range: P. aeruginosa (20) clinical isolates; for MBC / MIC: Pseudomonas aeruginosa
# [9] = test system: clinical Enterobacteriacae and P. aeruginosa isolates; assay: Susceptibility testing (Example 2), summary over species; type: cell-based; conditions: Pseudomonas aeruginosa, read-out: MIC values
# [10] = test system: Pseudomonas aeruginosa; assay: MIC, broth microdilution (Example 1); type: cell-based
# Method: as §1, §2, §3, §4, §5, §6
compound,measurement,setting,value
CN(C)c1cc(NC(=O)CNC(C)(C)C)c(O)c2c1C[C@H]1C[C@H]3[C@H](N(C)C)C(O)=C(C(N)=O)C(=O)[C@@]3(O)C(O)=C1C2=O [Tigecycline],MIC,[1]; A. baumannii 2602,0.06 µg/mL
same,MIC,[1]; Acinetobacter baumannii,0.06 µg/mL
same,MIC,[2],0.25 µg/mL
same,MIC,"[3]; Staphylococcus aureus, MRSA, S. aureus 0765 (MRSA)",0.25 µg/mL
same,MIC,"[3]; Staphylococcus aureus, MRSA, S. aureus 2053 (MRSA)",0.5 µg/mL
same,MIC,[4]; S. pneumoniae 0884 (PRSP),0.03 µg/mL
same,MIC,"[4]; Streptococcus pneumoniae, PRSP",0.03 µg/mL
same,MBC range,[5],0.06 to 4 µg/mL
same,MIC range,[5],0.06 to 0.5 µg/mL
same,MBC,[5]; E. coli isolate no. 5401,1 µg/mL
same,MIC,[5]; E. coli isolate no. 5401,0.5 µg/mL
same,MBC,[5]; E. coli isolate no. 5411,0.5 µg/mL
same,MIC,[5]; E. coli isolate no. 5411,0.125 µg/mL
same,MBC range,[6],0.5 to 8 µg/mL
same,MIC range,[6],0.125 to 1 µg/mL
same,MBC,[6]; K. pneumonia isolate no. 5427,2 µg/mL
same,MIC,[6]; K. pneumonia isolate no. 5427,0.5 µg/mL
same,MBC,[6]; K. pneumonia isolate no. 5436,1 µg/mL
same,MIC,[6]; K. pneumonia isolate no. 5436,0.125 µg/mL
same,MBC range,[7],0.5 to 4 µg/mL
same,MIC range,[7],0.25 to 2 µg/mL
same,MBC,[7]; E. cloacae isolate no. 4073,2 µg/mL
same,MIC,[7]; E. cloacae isolate no. 4073,0.5 µg/mL
same,MBC,[7]; E. cloacae isolate no. 5420,2 µg/mL
same,MIC,[7]; E. cloacae isolate no. 5420,0.5 µg/mL
same,MBC range,[8],8 to 256 µg/mL
same,MIC range,[8],2 to 32 µg/mL
same,MBC,[8]; P. aeruginosa isolate no. 796,32 µg/mL
same,MIC,[8]; P. aeruginosa isolate no. 796,32 µg/mL
same,MBC,[8]; P. aeruginosa isolate no. 956,128 µg/mL
same,MIC,[8]; P. aeruginosa isolate no. 956,16 µg/mL
same,MBC,[8]; P. aeruginosa isolate no. 1019,8 µg/mL
same,MIC,[8]; P. aeruginosa isolate no. 1019,2 µg/mL
same,MBC,[8]; P. aeruginosa isolate no. 1037,32 µg/mL
same,MIC,[8]; P. aeruginosa isolate no. 1037,8 µg/mL
same,MIC,[9],≤ 8 µg/mL
C[C@@H](O)[C@H]1C(=O)N2C(C(=O)O)=C(S[C@@H]3CN[C@H](C(=O)N(C)C)C3)[C@H](C)[C@H]12 [Meropenem],MIC,"[2]; K. pneumoniae 1468 (ESBL), read-out: MIC",0.06 µg/mL
same,MIC,[10]; P. aeruginosa 2555,4 µg/mL
same,MIC,[10]; P. aeruginosa 2559,0.12 µg/mL
same,MIC,[3]; S. aureus 2296 (CA-MRSA),>16^a^ μg/mL
same,MIC,"[3]; Staphylococcus aureus, MRSA, S. aureus 2202 (CA-MRSA), read-out: MIC",4 µg/mL
same,MIC,"[3]; Staphylococcus aureus, MRSA, S. aureus 2296 (CA-MRSA), read-out: MIC",> 16 µg/mL
same,MBC range,[5],0.06 to 0.125 µg/mL
same,MIC range,[5],0.03 to 0.06 µg/mL
same,MBC,"[5]; E. coli isolate no. 5401, read-out: MBC",0.06 µg/mL
same,MIC,"[5]; E. coli isolate no. 5401, read-out: MIC",0.06 µg/mL
same,MBC,"[5]; E. coli isolate no. 5411, read-out: MBC",0.06 µg/mL
same,MIC,"[5]; E. coli isolate no. 5411, read-out: MIC",0.06 µg/mL
same,MBC range,[6],0.06 to 0.125 µg/mL
same,MIC range,[6],0.03 to 0.06 µg/mL
same,MBC,"[6]; K. pneumonia isolate no. 5427, read-out: MBC",0.06 µg/mL
same,MIC,"[6]; K. pneumonia isolate no. 5427, read-out: MIC",0.06 µg/mL
same,MBC,"[6]; K. pneumonia isolate no. 5436, read-out: MBC",0.06 µg/mL
same,MIC,"[6]; K. pneumonia isolate no. 5436, read-out: MIC",0.06 µg/mL
same,MBC range,[7],0.03 to 0.5 µg/mL
same,MIC range,[7],0.03 to 0.25 µg/mL
same,MBC,[7]; E. cloacae isolate no. 4073,0.5 µg/mL
same,MIC,[7]; E. cloacae isolate no. 4073,0.25 µg/mL
same,MBC,[7]; E. cloacae isolate no. 5420,0.125 µg/mL
same,MIC,[7]; E. cloacae isolate no. 5420,0.125 µg/mL
same,MBC range,[8],0.125 to 32 µg/mL
same,MIC range,[8],0.125 to 16 µg/mL
same,MBC,"[8]; P. aeruginosa isolate no. 796, read-out: MBC",2 µg/mL
same,MIC,"[8]; P. aeruginosa isolate no. 796, read-out: MIC",1 µg/mL
same,MBC,"[8]; P. aeruginosa isolate no. 956, read-out: MBC",2 µg/mL
same,MIC,"[8]; P. aeruginosa isolate no. 956, read-out: MIC",0.25 µg/mL
same,MBC,"[8]; P. aeruginosa isolate no. 1019, read-out: MBC",2 µg/mL
same,MIC,"[8]; P. aeruginosa isolate no. 1019, read-out: MIC",1 µg/mL
same,MBC,"[8]; P. aeruginosa isolate no. 1037, read-out: MBC",1 µg/mL
same,MIC,"[8]; P. aeruginosa isolate no. 1037, read-out: MIC",0.5 µg/mL
same,MIC,[9]; Enterobacteriacae (30 isolates),≤ 4 µg/mL
